Reference: patent publication US12492173B2, “Herbicidal substituted N-tetrazolyl aryl carboxamides” (Bayer Aktiengesellschaft, priority 2019, dated 2025)

Experiments:
Type in all cases: in vivo
Amaranthus retroflexus [1] = assay: Post-emergence herbicidal action, AMARE; set-up: key: % herbicidal action vs untreated; 100 = plants died, 0 = like control
Outline: (§1)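 After sowing into sandy loam, plants grew 2 to 3 weeks under greenhouse conditions until one leaf, then got a spray of compound as aqueous suspension or emulsion. Roughly three weeks on, activity was estimated visually against untreated pots.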

Stellaria media = assay: Post-emergence herbicidal action, STEME; set-up: key: % herbicidal action vs untreated; 100 = plants died, 0 = like control
Outline: as §1

Amaranthus retroflexus [2] = assay: Pre-emergence herbicidal action, AMARE; set-up: key to Herbicidal action against AMARE: % activity: 100 = plants have died, 0 = like control plants; settings: for herbicidal activity AMARE / herbicidal action AMARE: dosage 320 g/ha; for herbicidal activity AMARE: scored visually after 3 weeks vs untreated controls (100% = plants have died); for Herbicidal action against AMARE: comparative experiment
Outline: (§2)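 Pre-emergence soil spray over sandy loam-covered seeds; greenhouse 3 weeks; % visual damage (0% = control, 100% = dead).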

Veronica persica = assay: Post-emergence herbicidal action, VERPE; set-up: key: % herbicidal action vs untreated; 100 = plants died, 0 = like control
Outline: as §1

Pharbitis purpurea = assay: Post-emergence herbicidal action, PHBPU
Outline: as §1

Abutilon theophrasti = assay: Pre-emergence herbicidal action, ABUTH; set-up: key to Herbicidal action against ABUTH: % activity: 100 = plants have died, 0 = like control plants; settings: for Herbicidal action against ABUTH: comparative experiment; for herbicidal activity ABUTH / herbicidal action ABUTH: dosage 320 g/ha; for herbicidal activity ABUTH: scored visually after 3 weeks vs untreated controls (100% = plants have died)
Outline: as §2

[3] = comparative experiment, post-emergence, 5 g of a.i./ha
[4] = comparative experiment, post-emergence, 20 g of a.i./ha

How did the “herbicidal action AMARE” value (Amaranthus retroflexus [1]; Dosage 80 g/ha) turn out when `CSCc1c(C(F)F)ccc(C(=O)Nc2nnnn2C)c1Cl` [Example 1-320] was run?
Its value is 100.

What about the “Herbicidal action against AMARE” value (Amaranthus retroflexus [1]; [3]) of the same compound?
Its value is 100.

And the “herbicidal action STEME” value (Stellaria media; Dosage 80 g/ha)?
The value was 100.

What about the “Herbicidal action against STEME” value (Stellaria media; [3]) of the same compound?
The value was 100.

What about the “herbicidal activity AMARE” value (Amaranthus retroflexus [2]) of the same compound?
Its value is 90%.

What about the “herbicidal action VERPE” value (Veronica persica; Dosage 80 g/ha) of the same compound?
The value was 100.

And the “Herbicidal action against VERPE” value (Veronica persica; [3])?
The value was 100.

And the “herbicidal action PHBPU” value (Pharbitis purpurea; Dosage 80 g/ha)?
Its value is 90.

What about the “Herbicidal action against ABUTH” value (Abutilon theophrasti; 20 g of a.i./ha) of the same compound?
The value was 90.

And the “herbicidal activity ABUTH” value (Abutilon theophrasti)?
Its value is 100%.

`Cn1nnnc1NC(=O)c1ccc(C(F)F)c(CS(C)(=O)=O)c1Cl` [Example 1-322] was tested. Which “herbicidal action AMARE” value (Amaranthus retroflexus [1]; post-emergence, dosage 80 g/ha) did it give?
Its value is 80%.

What about the “herbicidal action STEME” value (Stellaria media; post-emergence, dosage 80 g/ha) of the same compound?
Its value is 100%.

What about the “herbicidal activity AMARE” value (Amaranthus retroflexus [2]) of the same compound?
Its value is 100%.

And the “herbicidal action VERPE” value (Veronica persica; post-emergence, dosage 80 g/ha)?
Its value is 100%.

And the “herbicidal action PHBPU” value (Pharbitis purpurea; post-emergence, dosage 80 g/ha)?
Its value is 80%.

And the “herbicidal activity ABUTH” value (Abutilon theophrasti)?
The value was 100%.

How did the “herbicidal action AMARE” value (Amaranthus retroflexus [1]; post-emergence, dosage 80 g/ha) turn out when `CCSCc1c(C(F)F)ccc(C(=O)Nc2nnnn2C)c1Cl` [Example 1-323] was run?
Its value is 90%.

And the “herbicidal action STEME” value (Stellaria media; post-emergence, dosage 80 g/ha)?
The value was 100%.

And the “herbicidal activity AMARE” value (Amaranthus retroflexus [2])?
The value was 100%.

What about the “herbicidal action VERPE” value (Veronica persica; post-emergence, dosage 80 g/ha) of the same compound?
Its value is 100%.

What about the “herbicidal action PHBPU” value (Pharbitis purpurea; post-emergence, dosage 80 g/ha) of the same compound?
Its value is 100%.

And the “herbicidal activity ABUTH” value (Abutilon theophrasti)?
Its value is 100%.

Which results are given for `CSCc1c(I)ccc(C(=O)Nc2nnnn2C)c1Cl` [Example 1-362]?
Herbicidal action against AMARE (Amaranthus retroflexus [1]; [3]): 100; herbicidal action AMARE (Amaranthus retroflexus [1]; post-emergence, dosage 80 g/ha): 100%; Herbicidal action against STEME (Stellaria media; [3]): 90; herbicidal action STEME (Stellaria media; post-emergence, dosage 80 g/ha): 100%; Herbicidal action against AMARE (Amaranthus retroflexus [2]; 20 g of a.i./ha): 90; herbicidal activity AMARE (Amaranthus retroflexus [2]): 100%; herbicidal action VERPE (Veronica persica; post-emergence, dosage 80 g/ha): 100%; herbicidal action PHBPU (Pharbitis purpurea; post-emergence, dosage 80 g/ha): 100%; herbicidal activity ABUTH (Abutilon theophrasti): 100%

Which results are given for `CCSCc1c(C(F)(F)F)ccc(C(=O)Nc2nnnn2C)c1Br` [Example 1-383]?
herbicidal action AMARE (Amaranthus retroflexus [1]; post-emergence, dosage 80 g/ha): 90%; Herbicidal action against STEME (Stellaria media; [4]): 100; herbicidal action STEME (Stellaria media; post-emergence, dosage 80 g/ha): 100%; Herbicidal action against AMARE (Amaranthus retroflexus [2]; 80 g of a.i./ha): 100; herbicidal activity AMARE (Amaranthus retroflexus [2]): 100%; Herbicidal action against VERPE (Veronica persica; [4]): 100; herbicidal action VERPE (Veronica persica; post-emergence, dosage 80 g/ha): 100%; herbicidal action PHBPU (Pharbitis purpurea; post-emergence, dosage 80 g/ha): 90%; Herbicidal action against ABUTH (Abutilon theophrasti; 80 g of a.i./ha): 100; herbicidal activity ABUTH (Abutilon theophrasti): 100%

Which results are given for `CCS(=O)(=O)Cc1c(C(F)(F)F)ccc(C(=O)Nc2nnnn2C)c1Br` [Example 1-385]?
Herbicidal action against AMARE (Amaranthus retroflexus [1]; [4]): 90; herbicidal action AMARE (Amaranthus retroflexus [1]; post-emergence, dosage 80 g/ha): 90%; Herbicidal action against STEME (Stellaria media; [4]): 100; herbicidal action STEME (Stellaria media; post-emergence, dosage 80 g/ha): 100%; Herbicidal action against AMARE (Amaranthus retroflexus [2]; 80 g of a.i./ha): 100; herbicidal activity AMARE (Amaranthus retroflexus [2]): 100%; Herbicidal action against VERPE (Veronica persica; [4]): 100; herbicidal action VERPE (Veronica persica; post-emergence, dosage 80 g/ha): 100%; Herbicidal action against PHBPU (Pharbitis purpurea; [4]): 80; herbicidal action PHBPU (Pharbitis purpurea; post-emergence, dosage 80 g/ha): 90%; Herbicidal action against ABUTH (Abutilon theophrasti; 80 g of a.i./ha): 100; herbicidal activity ABUTH (Abutilon theophrasti): 100%

Which “herbicidal action AMARE” value (Amaranthus retroflexus [1]; Dosage 80 g/ha) does the source give for `Cn1nnnc1NC(=O)c1ccc(C(F)(F)F)c(CS(C)(=O)=O)c1C(F)(F)C(F)(F)F` [Example 1-552] here?
The value was 90.

What about the “herbicidal action STEME” value (Stellaria media; Dosage 80 g/ha) of the same compound?
Its value is 90.

And the “herbicidal activity AMARE” value (Amaranthus retroflexus [2])?
The value was 100%.

What about the “herbicidal action VERPE” value (Veronica persica; Dosage 80 g/ha) of the same compound?
The value was 100.

And the “herbicidal action PHBPU” value (Pharbitis purpurea; Dosage 80 g/ha)?
The value was 100.

And the “herbicidal activity ABUTH” value (Abutilon theophrasti)?
Its value is 100%.

Which results are given for `CSCc1c(Cl)ccc(C(=O)Nc2nnnn2C)c1Cl` [Example 1-559]?
herbicidal action AMARE (Amaranthus retroflexus [1]; post-emergence, dosage 80 g/ha): 100%; herbicidal action STEME (Stellaria media; post-emergence, dosage 80 g/ha): 100%; herbicidal action AMARE (Amaranthus retroflexus [2]): 100%; herbicidal action VERPE (Veronica persica; post-emergence, dosage 80 g/ha): 100%; herbicidal action PHBPU (Pharbitis purpurea; post-emergence, dosage 80 g/ha): 100%; herbicidal action ABUTH (Abutilon theophrasti): 100%

For `COc1c(C(=O)Nc2nnnn2C)ccc(Cl)c1CSC` [Example 1-570], which “Herbicidal action against AMARE” value (Amaranthus retroflexus [1]; post-emergence, dosage 80 g/ha) is on record?
Its value is 90.

And the “Herbicidal action against STEME” value (Stellaria media; post-emergence, dosage 80 g/ha)?
Its value is 80.

And the “herbicidal action AMARE” value (Amaranthus retroflexus [2])?
The value was 100%.

And the “Herbicidal action against VERPE” value (Veronica persica; post-emergence, dosage 80 g/ha)?
The value was 90.

And the “Herbicidal action against PHBPU” value (Pharbitis purpurea; post-emergence, dosage 80 g/ha)?
The value was 90.

What about the “herbicidal action ABUTH” value (Abutilon theophrasti) of the same compound?
The value was 90%.

Which results are given for `CCSCc1c(C(F)(F)F)ccc(C(=O)Nc2nnnn2CC)c1C` [Example 2-86]?
herbicidal action AMARE (Amaranthus retroflexus [1]; post-emergence, dosage 80 g/ha): 80%; herbicidal action STEME (Stellaria media; post-emergence, dosage 80 g/ha): 100%; herbicidal action AMARE (Amaranthus retroflexus [2]): 100%; herbicidal action VERPE (Veronica persica; post-emergence, dosage 80 g/ha): 90%; herbicidal action PHBPU (Pharbitis purpurea; post-emergence, dosage 80 g/ha): 90%; herbicidal action ABUTH (Abutilon theophrasti): 100%

What does the source list for `CCn1nnnc1NC(=O)c1ccc(C(F)(F)F)c(CS(=O)(=O)CC)c1C` [Example 2-88]?
herbicidal action AMARE (Amaranthus retroflexus [1]; Dosage 80 g/ha): 90; herbicidal action STEME (Stellaria media; Dosage 80 g/ha): 100; herbicidal action AMARE (Amaranthus retroflexus [2]): 100%; herbicidal action VERPE (Veronica persica; Dosage 80 g/ha): 100; herbicidal action PHBPU (Pharbitis purpurea; Dosage 80 g/ha): 90; herbicidal action ABUTH (Abutilon theophrasti): 100%

How did the “herbicidal action AMARE” value (Amaranthus retroflexus [1]; Dosage 80 g/ha) turn out when `CCn1nnnc1NC(=O)c1ccc(C(F)F)c(C[S+](C)[O-])c1C` (centres unmarked) [Example 2-108] was run?
Its value is 100.

What about the “herbicidal action STEME” value (Stellaria media; Dosage 80 g/ha) of the same compound?
The value was 100.

And the “herbicidal action AMARE” value (Amaranthus retroflexus [2])?
Its value is 100%.

And the “herbicidal action VERPE” value (Veronica persica; Dosage 80 g/ha)?
The value was 100.

What about the “herbicidal action PHBPU” value (Pharbitis purpurea; Dosage 80 g/ha) of the same compound?
Its value is 100.

And the “herbicidal action ABUTH” value (Abutilon theophrasti)?
Its value is 100%.

For `CCn1nnnc1NC(=O)c1ccc(C(F)(F)F)c(C[S+](C)[O-])c1SC` (centres unmarked) [Example 2-162], which “herbicidal action AMARE” value (Amaranthus retroflexus [1]; Dosage 80 g/ha) is on record?
Its value is 90.

And the “herbicidal action STEME” value (Stellaria media; Dosage 80 g/ha)?
The value was 100.

And the “herbicidal activity AMARE” value (Amaranthus retroflexus [2])?
Its value is 100%.

And the “herbicidal action VERPE” value (Veronica persica; Dosage 80 g/ha)?
The value was 90.

What about the “herbicidal action PHBPU” value (Pharbitis purpurea; Dosage 80 g/ha) of the same compound?
Its value is 90.

And the “herbicidal activity ABUTH” value (Abutilon theophrasti)?
The value was 100%.
